PubChem BioAssay (NCI)
Several values for one entry are separate records, joined by “and”; a condition that tells them apart may be missing. Equal values may be shown once.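 Following 48 hours of exposure in 96-well plates, responses at five concentrations were used to interpolate endpoints linearly. GI50 marks 50% less growth. TGI: total growth inhibition.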

What was measured:
Test in all cases: NCI tumour cell line growth inhibition, 48 h
[1] = tested on: HCT-15 colon
[2] = tested on: HOP-92 NSCLC
[3] = tested on: SK-MEL-28 melanoma
[4] = tested on: IGROV1 ovarian
[5] = tested on: OVCAR-4 ovarian
[6] = tested on: OVCAR-8 ovarian
[7] = tested on: HT29 colon
[8] = tested on: CAKI-1 renal
[9] = tested on: SNB-75 CNS
[10] = tested on: SK-MEL-5 melanoma

SMILES	GI50 [1]	TGI [1]	GI50 [2]	TGI [2]	GI50 [3]	TGI [3]	GI50 [4]	TGI [4]	GI50 [5]	TGI [5]	GI50 [6]	TGI [6]	GI50 [7]	TGI [7]	GI50 [8]	TGI [8]	GI50 [9]	TGI [9]	GI50 [10]	TGI [10]
O=C(O)CCC/C=C\C[C@H]1C=CC(=O)/C1=C/C[C@@H](O)CCc1cccc(C(F)(F)F)c1	1.79 µM	4.88 µM	3.32 µM	8.2 µM	1.52 µM	4.4 µM	3.41 µM	13.6 µM	3.94 µM	16.8 µM	2.86 µM	11.6 µM	2.69 µM	6.41 µM	3.92 µM	14.7 µM	9.41 µM	22.2 µM	1.71 µM	3.14 µM
Cc1nc(-c2ccccc2)cc2c1c(=O)oc1ccccc12	–	> 100 µM	–	> 100 µM	–	> 100 µM	–	> 100 µM	–	> 100 µM	–	> 100 µM	–	> 100 µM	–	> 100 µM	–	> 100 µM	–	> 100 µM
COc1ccc(-c2nc(C(=O)c3ccccc3)n(CC(=O)c3ccccc3)c2-c2ccc(OC)cc2)cc1	> 100 µM	> 100 µM	12.4 µM	> 100 µM	> 100 µM	> 100 µM	> 100 µM	> 100 µM	> 100 µM	> 100 µM	> 100 µM	> 100 µM	> 100 µM	> 100 µM	> 100 µM	> 100 µM	> 100 µM	> 100 µM	> 100 µM	> 100 µM
CC(=O)C1C(=O)NC(=O)C1=O (stereo unspecified)	–	> 100 µM	–	> 100 µM	–	> 100 µM	–	> 100 µM	–	> 100 µM	–	> 100 µM	–	> 100 µM	–	> 100 µM	–	> 100 µM	–	> 100 µM
O=C(Nc1ccccc1O)c1ccc(CNc2ccnc(C(F)(F)F)c2)cc1	11.8 µM	> 100 µM	0.699 µM	15.4 µM	3.52 µM	23.4 µM	7.64 µM	32.9 µM	17.2 µM	> 100 µM	5.15 µM	> 100 µM	6.42 µM	> 100 µM	1.74 µM	14.3 µM	7.26 µM	48.4 µM	2.2 µM	10.2 µM
O=C(O)/C(Cl)=C(\Cl)C(=O)NC1C2CC3CC(C2)CC1C3 (stereo unspecified)	–	> 100 µM	–	> 100 µM	–	> 100 µM	–	> 100 µM	–	> 100 µM	–	> 100 µM	–	> 100 µM	–	> 100 µM	–	> 100 µM	–	> 100 µM
COC(=O)Nc1nc2ccc(C(=O)c3ccc(N(C)C4COC4)cc3)cc2[nH]1	0.303 µM	> 100 µM	0.62 µM	45.9 µM	> 100 µM	> 100 µM	0.905 µM	> 100 µM	2.85 µM	> 100 µM	0.482 µM	> 100 µM	0.34 µM	> 100 µM	0.435 µM	> 100 µM	0.227 µM	> 100 µM	0.425 µM	3.99 µM
CCn1cc(-c2ccnc3[nH]ccc23)c(-c2cccc(NC(=O)Nc3ccc(OCc4ccccc4)cc3)c2)n1	6.28 µM	> 25 µM	> 25 µM	> 25 µM	18.1 µM	> 25 µM	18.1 µM	> 25 µM	> 23.4 µM	> 25 µM	15.7 µM	> 25 µM	4.18 µM	> 20.3 µM	6.71 µM	> 25 µM	4.35 µM	> 25 µM	13.5 µM	> 25 µM
NCCN.NCCN.O=C[O-].O=C[O-].[Co+3].[O-][Cl+3]([O-])([O-])[O-]	> 100 µM	> 100 µM	> 100 µM	> 100 µM	> 100 µM	> 100 µM	> 100 µM	> 100 µM	> 100 µM	> 100 µM	> 100 µM	> 100 µM	> 100 µM	> 100 µM	> 100 µM	> 100 µM	> 100 µM	> 100 µM	> 100 µM	> 100 µM
C[C@@H](CN1CC(=O)NC(=O)C1)N1CC(=O)NC(=O)C1	–	823 µM	–	908 µM	–	1750 µM	–	1440 µM	–	1110 µM	–	747 µM	–	950 µM	80.7 µM	772 µM	–	929 µM	–	543 µM
CN(CCc1ccccn1)c1nc(=[N+](C)C)ss1	–	> 100 µM	–	> 100 µM	–	> 100 µM	–	> 100 µM	–	> 100 µM	–	> 100 µM	–	> 100 µM	–	> 100 µM	–	> 100 µM	–	> 100 µM
O=C(O)c1cc2ccccc2oc1=O	–	> 100 µM	–	> 100 µM	–	> 100 µM	–	> 100 µM	–	> 100 µM	–	> 100 µM	–	> 100 µM	–	> 100 µM	–	> 100 µM	–	> 100 µM
CCCCCCCCCc1cc[n+](CC(=O)c2ccc([N+](=O)[O-])cc2)cc1	1.19 µM	2.57 µM	0.234 µM	1.03 µM	1.11 µM	2.39 µM	1.66 µM	3.29 µM	0.78 µM	2.57 µM	0.604 µM	2.13 µM	0.313 µM	1.29 µM	3.19 µM	12 µM	1.12 µM	2.36 µM	0.42 µM	1.54 µM
O=C(Nc1cccc(Cc2cccc(NC(=O)c3ccccc3)c2)c1)c1ccccc1	–	> 100 µM	–	44.3 µM	–	> 100 µM	–	> 100 µM	–	39.8 µM	–	> 100 µM	–	> 100 µM	–	47.9 µM	–	27.5 µM	–	> 100 µM
CN1C(=O)[C@@H](NC(=O)[C@H](CCC(F)(F)F)[C@H](CCC(F)(F)F)C(N)=O)N=C(c2ccccc2)c2ccccc21	89.5 µM	> 100 µM	59.1 µM	> 100 µM	59.7 µM	> 100 µM	> 100 µM	> 100 µM	86.8 µM	> 100 µM	> 100 µM	> 100 µM	> 100 µM	> 100 µM	> 100 µM	> 100 µM	32.6 µM	> 100 µM	36.1 µM	> 100 µM
Cc1ccc(NC(=O)C(=O)CC(=O)C2CCOC2=O)c(C)c1 (stereo unspecified)	–	> 100 µM	–	> 100 µM	–	> 100 µM	–	> 100 µM	–	> 100 µM	–	> 100 µM	–	> 100 µM	–	> 100 µM	–	> 100 µM	–	> 100 µM
Clc1ccc(C2=Nn3c(nnc3-c3cc(Cl)cc(Cl)c3Cl)SC2)cc1	22.3 µM	> 100 µM	19.6 µM	65 µM	> 100 µM	> 100 µM	6.8 µM	24.7 µM	> 100 µM	> 100 µM	38.3 µM	> 100 µM	9.26 µM	> 100 µM	14.6 µM	31.3 µM	14.8 µM	34.2 µM	23.5 µM	> 100 µM
N#CSc1c[nH]c2ccc(/C=C/C(=O)/C=C(/C=C/c3ccc4[nH]cc(SC#N)c4c3)OB(F)F)cc12	0.249 µM	1.09 µM	0.321 µM	1.5 µM	0.498 µM	2.29 µM	0.352 µM	1.37 µM	0.344 µM	3.11 µM	0.577 µM	> 100 µM	0.394 µM	2.38 µM	0.531 µM	4.05 µM	2.38 µM	11.1 µM	1.37 µM	2.93 µM
OC(COc1ccc(F)cc1)Cn1cnc2c(Cl)ncnc21 (stereo unspecified)	32.4 µM	> 100 µM	> 100 µM	> 100 µM	> 100 µM	> 100 µM	47.4 µM	> 100 µM	> 100 µM	> 100 µM	78.6 µM	> 100 µM	> 100 µM	> 100 µM	19.9 µM	37.6 µM	> 100 µM	> 100 µM	81.4 µM	> 100 µM
COC1=CC(=O)C(OC)=C(OC)C1=O	16.2 µM	33.7 µM	9.38 µM	22.4 µM	28.3 µM	94.1 µM	19.7 µM	37.6 µM	3.05 µM	9.69 µM	15.5 µM	30.7 µM	22.5 µM	53.8 µM	16.1 µM	30 µM	12.1 µM	25.6 µM	16.2 µM	30.2 µM
CC(C)CC(=O)Nc1n[nH]c2c1CN(C(=O)C1CCN(C)CC1)C2(C)C	> 10 µM	> 10 µM	0.451 µM	7.54 µM	0.626 µM	> 10 µM	0.579 µM	> 10 µM	2.54 µM	> 10 µM	1.3 µM	> 10 µM	0.79 µM	> 10 µM	4.79 µM	> 10 µM	1.02 µM	4.14 µM	0.743 µM	5.7 µM
O/N=C1/C(=C/c2ccc(Oc3ccccc3)cc2)CCCC1C(NO)c1ccc(Oc2ccccc2)cc1 (stereo unspecified)	–	> 100 µM	–	56.3 µM	–	> 100 µM	–	> 100 µM	–	> 100 µM	–	> 100 µM	–	30.5 µM	–	88.6 µM	–	> 100 µM	–	36.7 µM
Nc1ccccc1NC(=O)c1ccc(CCCC(=O)Nc2ccc(C3CC3N)cc2)cc1 (stereo unspecified)	18.8 µM	> 100 µM	0.359 µM	4.21 µM	1.31 µM	11.3 µM	4.24 µM	> 100 µM	2.21 µM	26.4 µM	1.32 µM	> 100 µM	0.995 µM	> 100 µM	2.46 µM	14.4 µM	1.89 µM	50.4 µM	0.716 µM	2.21 µM
Cc1cc(Nc2c3ccccc3nc3ccccc23)ccc1NS(C)(=O)=O	4.12 µM	20.5 µM	0.758 µM	5.69 µM	5.4 µM	19.5 µM	3.07 µM	11 µM	5.03 µM	46.5 µM	3.41 µM	21.7 µM	3.38 µM	12.8 µM	3.36 µM	15.6 µM	5.11 µM	19.9 µM	4.2 µM	16.6 µM
COc1cc(Nc2ncc(F)c(Nc3ccc4c(n3)NC(=O)C(C)(C)O4)n2)cc(OC)c1OC	4.75 µM	> 10 µM	0.302 µM	4.85 µM	> 100 µM	> 100 µM	0.43 µM	> 10 µM	> 100 µM	> 100 µM	> 100 µM	> 100 µM	1.32 µM and 2.01 µM	> 100 µM	0.618 µM	> 10 µM	0.385 µM	> 10 µM	> 100 µM	> 100 µM
Nc1nc2cc3ccc(C4CC(O)C(CO)O4)cc3cc2c(=O)[nH]1 (stereo unspecified)	> 100 µM	> 100 µM	> 100 µM	> 100 µM	> 100 µM	> 100 µM	> 100 µM	> 100 µM	> 100 µM	> 100 µM	> 100 µM	> 100 µM	> 100 µM	> 100 µM	> 100 µM	> 100 µM	49.6 µM	> 100 µM	> 100 µM	> 100 µM
CC(=O)[O-].[Mn+3].[O-]c1ccccc1C=NCCN=Cc1ccccc1[O-]	41.9 µM	> 100 µM	> 100 µM	> 100 µM	> 100 µM	> 100 µM	> 100 µM	> 100 µM	> 100 µM	> 100 µM	> 100 µM	> 100 µM	92.3 µM	> 100 µM	> 100 µM	> 100 µM	> 100 µM	> 100 µM	94.8 µM	> 100 µM
O=C(O)c1cc2ccccc2c(N=Nc2cc(C(F)(F)F)ccc2Cl)c1O	–	> 100 µM	–	> 100 µM	–	> 100 µM	–	> 100 µM	–	> 100 µM	–	> 100 µM	–	> 100 µM	–	> 100 µM	–	0.0907 µM	–	> 100 µM
O=S(=O)(SCc1ccccc1)C(c1ccccc1)c1ccccc1	–	> 100 µM	–	35.5 µM	–	> 100 µM	–	> 100 µM	–	> 100 µM	–	43.1 µM	–	71.4 µM	–	93.8 µM	–	> 100 µM	–	51.8 µM
